Experimental data taken from BindingDB's records for doi:10.3109/14756360903179443 (Institute of Chemical Technology, 2010).
Counter-ions that a name gives are not always drawn.

What was measured:
Assay in all cases: Biological Assay
[1] = molecular target: T1, Bifunctional dihydrofolate reductase-thymidylate synthase (Toxoplasma gondii, UniProt Q07422)
T1 sequence (Q07422 whole entry): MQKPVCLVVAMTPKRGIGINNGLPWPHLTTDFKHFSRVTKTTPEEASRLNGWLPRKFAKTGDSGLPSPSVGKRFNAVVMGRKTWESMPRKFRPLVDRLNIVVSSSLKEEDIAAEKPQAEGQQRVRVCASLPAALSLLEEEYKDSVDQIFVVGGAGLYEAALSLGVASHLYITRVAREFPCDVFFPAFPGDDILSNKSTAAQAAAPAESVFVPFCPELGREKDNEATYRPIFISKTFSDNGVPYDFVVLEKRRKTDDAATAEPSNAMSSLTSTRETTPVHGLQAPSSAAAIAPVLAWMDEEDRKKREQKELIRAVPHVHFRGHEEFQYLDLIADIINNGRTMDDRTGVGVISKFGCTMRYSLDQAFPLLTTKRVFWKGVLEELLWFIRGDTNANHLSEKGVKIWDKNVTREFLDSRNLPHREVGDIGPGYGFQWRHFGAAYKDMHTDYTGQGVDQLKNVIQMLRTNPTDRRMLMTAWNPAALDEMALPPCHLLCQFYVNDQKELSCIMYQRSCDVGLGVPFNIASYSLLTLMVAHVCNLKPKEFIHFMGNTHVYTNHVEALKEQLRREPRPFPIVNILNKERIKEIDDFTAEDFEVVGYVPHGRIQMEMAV
Description: (§1) The synthesized compounds were evaluated for their ability to inhibit DHFR from pc, tg, ma, and rl using a continuous spectrophotometric assay measuring oxidation at […] of NADPH at 37°C under conditions of saturating substrate and cofactor as previously described [Broughton et al., Antimicrob. Agents Chemother., 35:1348-55; Chio et al., Antimicrob. Agents Chemother., 37:1914-23].

[2] = molecular target: T2, Dihydrofolate reductase (Mycobacterium avium, UniProt O30463)
T2 sequence (O30463 whole entry): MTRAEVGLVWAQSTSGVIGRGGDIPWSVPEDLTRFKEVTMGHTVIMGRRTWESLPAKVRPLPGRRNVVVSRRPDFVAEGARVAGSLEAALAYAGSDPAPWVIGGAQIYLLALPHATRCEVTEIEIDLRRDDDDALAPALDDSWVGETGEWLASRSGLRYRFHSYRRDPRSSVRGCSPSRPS
Description: as §1

[3] = molecular target: T3, Dihydrofolate reductase (Pneumocystis carinii, UniProt P16184)
T3 sequence (P16184 whole entry): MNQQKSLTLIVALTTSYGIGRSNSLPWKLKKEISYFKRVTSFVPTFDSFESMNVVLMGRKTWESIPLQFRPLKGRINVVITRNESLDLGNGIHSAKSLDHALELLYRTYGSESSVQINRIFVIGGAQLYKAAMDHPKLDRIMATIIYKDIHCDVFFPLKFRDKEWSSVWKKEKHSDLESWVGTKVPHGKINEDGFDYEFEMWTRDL
Description: as §1

[4] = molecular target: T4, Dihydrofolate reductase (Rattus norvegicus, UniProt Q920D2)
T4 sequence (Q920D2 whole entry): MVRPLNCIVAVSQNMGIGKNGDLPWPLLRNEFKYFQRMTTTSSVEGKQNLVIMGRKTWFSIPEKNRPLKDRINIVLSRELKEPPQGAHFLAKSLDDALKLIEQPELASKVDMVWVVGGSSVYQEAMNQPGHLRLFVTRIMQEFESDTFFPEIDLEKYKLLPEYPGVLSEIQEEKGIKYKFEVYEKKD
Description: as §1

## N=C(N)NC(=N)Nc1ccc(OCc2ccccc2)cc1 [N-[4-(Benzyloxy)phenyl]imidodicarbonimidic diamide hydrochloride (B1-01)]
[1]
  IC50: 132 µM
[2]
  IC50: 132 µM
[3]
  IC50: 132 µM
[4]
  IC50: 132 µM

## CC1(C)N=C(N)N=C(N)N1c1ccc(OCCCN2C(=O)c3ccccc3C2=O)cc1 [2-(3-(4-(4,6-Diamino-2,2-dimethyl-1,3,5-triazin-1(2H)-yl)phenoxy)propyl)isoindoline-1,3-dione hydrochloride (A2-02)]
[1]
  IC50: 0.169 µM
[2]
  IC50: 35.2 µM
[3]
  IC50: 6.49 µM
[4]
  IC50: 0.556 µM

## CC1(C)N=C(N)N=C(N)N1c1ccc(OCc2ccc(Cl)cc2Cl)cc1 [1-(4-(2,4-Dichlorobenzyloxy)phenyl)-6,6-dimethyl-1-,6-dihydro-1,3,5-triazine-2,4-diamine hydrochloride (B2-04)]
[1]
  IC50: 0.029 µM
[2]
  IC50: 11.2 µM
[3]
  IC50: 1.08 µM
[4]
  IC50: 0.018 µM

## COc1cccc(COc2ccc(NC(=N)NC(=N)N)cc2)c1 [N-{4-[(3-Methoxybenzyl)oxy]phenyl}imidodicarbonimidic diamide hydrochloride (B1-06)]
[1]
  IC50: 8.4 µM
[2]
  IC50: 15.5 µM
[3]
  IC50: 15.5 µM
[4]
  IC50: 14.7 µM

## CC1(C)N=C(N)N=C(N)N1c1ccc(OCc2ccc(-c3ccccc3)cc2)cc1 [1-(4-(Biphenyl-4-ylmethoxy)phenyl)-6,6-dimethyl-1,6-dihydro-1,3,5-triazine-2,4-diamine hydrochloride (B2-07)]
[1]
  IC50: 0.012 µM
[2]
  IC50: 10.2 µM
[3]
  IC50: 0.403 µM
[4]
  IC50: 0.026 µM

## N=C(N)NC(=N)Nc1ccc(OCCN2C(=O)c3ccccc3C2=O)cc1 [N-{4-[2-(1,3-Dioxo-1,3-dihydro-2H-isoindol-2-yl)ethoxy]phenyl}imidodicarbonimidic diamide hydrochloride (A1-01)]
[1]
  IC50: 40.3 µM
[2]
  IC50: 51.4 µM
[3]
  IC50: 51.4 µM
[4]
  IC50: 67.7 µM

## CC1(C)N=C(N)N=C(N)N1c1ccc(OCc2ccccc2Cl)cc1 [1-(4-(2-Chlorobenzyloxy)phenyl)-6,6-dimethyl-1,6-dihydro-1,3,5-triazine-2,4-diamine hydrochloride (B2-03)]
[1]
  IC50: 0.04 µM
[2]
  IC50: 10.3 µM
[3]
  IC50: 2.53 µM
[4]
  IC50: 0.073 µM

## CC1(C)N=C(N)N=C(N)N1c1ccc(OCc2ccc(Br)cc2)cc1 [1-(4-(4-Bromobenzyloxy)phenyl)-6,6-dimethyl-1,6-dihydro-1,3,5-triazine-2,4-diamine hydrochloride (B2-05)]
[1]
  IC50: 0.033 µM
[2]
  IC50: 7.32 µM
[3]
  IC50: 0.829 µM
[4]
  IC50: 0.033 µM

## CC1(C)N=C(N)N=C(N)N1c1ccc(OCc2ccccc2)cc1
[1]
  IC50: 0.032 µM
[2]
  IC50: 14.4 µM
[3]
  IC50: 5.4 µM
[4]
  IC50: 0.12 µM

## N=C(N)NC(=N)Nc1ccc(OCc2ccc(Br)cc2)cc1 [N-{4-[(4-Bromobenzyl)oxy]phenyl}imidodicarbonimidic diamide hydrochloride (B1-05)]
[1]
  IC50: 21.4 µM
[2]
  IC50: 127 µM
[3]
  IC50: 164 µM
[4]
  IC50: 74.9 µM

## NC(N)=N/C(N)=N/c1ccc(OCc2cccc(Cl)c2)cc1 [N-{4-[(3-Chlorobenzyl)oxy]phenyl}imidodicarbonimidic diamide hydrochloride (B1-02)]
[1]
  IC50: 58.5 µM
[2]
  IC50: 63.8 µM
[3]
  IC50: 104 µM
[4]
  IC50: 68.7 µM

## CC1(C)N=C(N)N=C(N)N1c1ccc(OCCN2C(=O)c3ccccc3C2=O)cc1 [2-(2-(4-(4,6-Diamino-2,2-dimethyl-1,3,5-triazin-1(2H)-yl)phenoxy)ethyl)isoindoline-1,3-dione hydrochloride (A2-01)]
[1]
  IC50: 0.424 µM
[2]
  IC50: 44.6 µM
[3]
  IC50: 15.4 µM
[4]
  IC50: 1.16 µM

## COc1ccc(COc2ccc(N3C(N)=NC(N)=NC3(C)C)cc2)cc1 [1-(4-(4-Methoxybenzyloxy)phenyl)-6,6-dimethyl-1,6-dihydro-1,3,5-triazine-2,4-diamine hydrochloride (B2-06)]
[1]
  IC50: 0.019 µM
[2]
  IC50: 3.38 µM
[3]
  IC50: 1.69 µM
[4]
  IC50: 0.048 µM

## NC(N)=N/C(N)=N/c1ccc(OCc2ccc(Cl)cc2Cl)cc1 [N-{4-[(2,4-Dichlorobenzyl)oxy]phenyl}imidodicarbonimidic diamide hydrochloride (B1-04)]
[1]
  IC50: 111 µM
[2]
  IC50: 111 µM
[3]
  IC50: 123 µM
[4]
  IC50: 27.9 µM

## N=C(N)NC(=N)Nc1ccc(OCCCN2C(=O)c3ccccc3C2=O)cc1 [N-{4-[3-(1,3-Dioxo-1,3-dihydro-2H-isoindol-2-yl)propoxy]phenyl}imidodicarbonimidic diamide hydrochloride (A1-02)]
[1]
  IC50: 135 µM
[2]
  IC50: 106 µM
[3]
  IC50: 106 µM
[4]
  IC50: 106 µM

## CC1(C)N=C(N)N=C(N)N1c1ccc(OCC(O)CN2C(=O)c3ccccc3C2=O)cc1 (stereo not given) [2-(3-(4-(4,6-Diamino-2,2-dimethyl-1,3,5-triazin-1(2H)-yl)phenoxy)-2-hydroxypropyl)isoindoline-1,3-dione hydrochloride (A2-04)]
[1]
  IC50: 0.523 µM
[2]
  IC50: 154 µM
[3]
  IC50: 34.6 µM
[4]
  IC50: 1.94 µM

## CC1(C)N=C(N)N=C(N)N1c1ccc(OCCCCN2C(=O)c3ccccc3C2=O)cc1 [2-(4-(4-(4,6-Diamino-2,2-dimethyl-1,3,5-triazin-1(2H)-yl)phenoxy)butyl)isoindoline-1,3-dione (A2-03)]
[1]
  IC50: 0.079 µM
[2]
  IC50: 8.9 µM
[3]
  IC50: 2.61 µM
[4]
  IC50: 0.033 µM

## N=C(N)NC(=N)Nc1ccc(OCc2ccccc2Cl)cc1 [N-{4-[(2-Chlorobenzyl)oxy]phenyl}imidodicarbonimidic diamide hydrochloride (B1-03)]
[1]
  IC50: 9.95 µM
[2]
  IC50: 152 µM
[3]
  IC50: 293 µM
[4]
  IC50: 20.8 µM

## NC(N)=N/C(N)=N/c1ccc(OCc2ccc(-c3ccccc3)cc2)cc1 [N-[4-(Biphenyl-4-ylmethoxy)phenyl]imidodicarbonimidic diamide hydrochloride (B1-07)]
[1]
  IC50: 111 µM
[2]
  IC50: 104 µM
[3]
  IC50: 104 µM
[4]
  IC50: 67 µM

## CC1(C)N=C(N)N=C(N)N1c1ccc(OCc2cccc(Cl)c2)cc1 [1-(4-(3-Chlorobenzyloxy)phenyl)-6,6-dimethyl-1,6-dihydro-1,3,5-triazine-2,4-diamine hydrochloride (B2-02)]
[1]
  IC50: 0.02 µM
[2]
  IC50: 4.08 µM
[3]
  IC50: 1.11 µM
[4]
  IC50: 0.034 µM
